Measured values as given in patent publication US20080311122A1, “Antagonists of Hmgb1 and/or Rage and Methods of Use Thereof” (Medimmune, LLC, priority 2005, published 2008).
“Also recorded” adds a separate entry of the source.

Key:
CpG A DNA = assay: Tryptophan emission for CpG-A binding to HMGB1; conditions: intrinsic tryptophan fluorescence; read-out: apparent Kd for CpG A DNA
Experimental: Tryptophan emission for CpG-A binding to HMGB1: Fluorescence titrations and spectra of HMGB-1 were carried out at 25° C. with a SPEX Fluoromax-3 spectrofluorimeter, monitoring the HMGB-1 intrinsic tryptophan emission at 347 nm (8 nm bandwidth) with 280 nm excitation (3 nm bandwidth) in a masked capped dual-pathlength (0.2×1.0 cm) quartz cell (Hellma Cells, Inc., Jamaica, N.Y.) upon stepwise addition of CpG-A (0.5 mM) to a 1.7 μM solution of HMGB-1 in 1:10 Dulbecco Phosphate Buffered Saline (PBS) solution (Invitrogen, Carlsbad, Calif.). Complex formation between HMGB-1 and the nucleic acid was monitored by the change in the initial fluorescence of the protein. HMGB-1 fractional saturation was inferred from the ratio of observed fluorescence change to maximal change (at saturation), Flim, for each of the nucleic acid additions. Binding affinity was calculated from graphs of relative fluorescence intensity versus [nucleic acid base]/[protein].The occluded binding site size (n) was derived from the intersection of the extrapolated initial slope with the limiting fluorescence plateau in the equilibrium binding isotherms. The measurements for assessment of Tryptophan emission are reviewed in detail in Lakowicz, 2000, Photochem. Photobiol. 72, 421-437.

mouse macrophages = assay: TNF-a induction in mouse macrophages; format: cell-based
Experimental: TNF-a Induction: To examine mRNA levels macrophages were derived from mouse bone marrow using M-CSF. Macrophages were then stimulated by LPS, E. coli produced recombinant HMGB1 or HMGB1 purified from bovine thymus for indicated length of time and mRNA is measured by Taqman. To examine protein levels thioglycant activated mouse peritoneal macrophages were stimulated with 10 μg/mL of HMGB1 purified from bovine thymus or recombinant HMGB1 generated from E. coli for 24 hr. Cytokines in the supernatant were measured by ELISA.

pDCs = assay: Stimulation of pDCs isolated from bone marrow, cytokine ELISA; format: cell-based, mouse; conditions: 24 hr
Description: Mice and Bone Marrow Cells: C57BL/6 mice were obtained from The Jackson Laboratories and maintained in specific pathogen-free conditions in conventional animal facilities at MedImmune, Inc. TLR9 deficient and MyD88 deficient mice and their litter mate controls were maintained in animal facility of University of Massachusetts Medical School. RAGE deficient mice generated were obtained from Heidelburg Germany and maintained at the University of Massachusetts Medical School. Fresh bone marrow cells were collected and pDCs were isolated from bone marrow cells using miltenyibiotec's plasmacytoid dendritic cell isolation kit. pDCs were re-suspended in Opti-MEM (Invitrogen) and stimulated […] cell/well for 24 hr and cytokine level in the supernatant was measured by ELISA.

[1] = system: lupus plasma induced IFIT1 mRNA in human PBMCs; assay: IFIT1 mRNA induction in PBMCs by lupus plasma; format: cell-based; conditions: 20% lupus plasma
Experimental: Human Cell Culture and Isolation: Fresh PBMCs from healthy donors were prepared by Ficoll-hypaque fractionation and cultured at a density of 2×10^5Cells/0.1 ml in 96-well flat-bottomed plates in culture medium. 20% of lupus plasma was incubated with PBMC for 24 hrs. Some wells included antibodies anti-HMGB1, RAGE Fc or human IgG together with lupus plasma. After 24 hrs, PBMCs were collected and lysed. Total RNA was purified using the 96-well Total RNA Purification Kit (Gentra, Minneapolis, Minn.). 11 μl of this RNA was reverse-transcribed to cDNA in a 20 μl reaction using SuperScript III RNase H-Reverse Transcriptase (Invitrogen, Carlsbad, Calif.). cDNA obtained from each sample was diluted 1:[…] was amplified in a 25 μl real-time PCR reaction using 0.4 μM of sense and antisense primers and the 2×iQ SYBR Green Supermix (Bio-Rad, Hercules, Calif.). GAPDH was used as a housekeeping gene control. Primer sequences for IFIG and GAPDH were: IFIT1 forward, 5′-[…]-3′ (SEQ ID NO: 111); IFIT1 reverse, 5′-AGTCAGCAGCCAGTCTCAG-3′ (SEQ ID NO: 112); GAPDH forward, 5′-CAACGGATTTGGTCGTATT-3′ (SEQ ID NO: 113); GAPDH reverse, 5′-[…]-3′ (SEQ ID NO: 114).

[2] = system: native activated HMG1 stimulated IL-6 release from human PBMCs; assay: Inhibition of cytokine release from PBMCs, native activated HMG1; format: cell-based
Experimental: Inhibition of Cytokine Release: Human peripheral blood mononuclear cells (PBMCs) were isolated from the peripheral blood of healthy volunteers by a density gradient centrifugation. Freshly drawn heparinized whole blood was mixed with two volume of PBS. The diluted blood was gently layered on the surface of Histopaque-1077 (Sigma-Aldrich) and centrifuged at 400×g, at RT for 30 minute. PBMCs were collected from the interface between the plasma and the density gradient solution. After washing in PBS 3×, the purified PBMCs were resuspended in RPMI-1640 medium (GIBCO BRL) containing 100 U/ml penicillin, 100 μg/ml streptomycin and […] β-mercaptoethanol. 1×10^5 of cells was added in each well of 96-well cell culture plates. […]
The culture media were analyzed for inflammatory cytokines using Beadlyte human multi-cytokine flex kit from Upstate by Luminex 100 (Luminex Corp.). Proinflammatory cytokines TNF-α, IL-6, IL-1β and IL-12 (p40) were measured for cells stimulated with recombinant HMG1. In addition, TNF-α, IL-6, IL-1β and IL-8 were measured for cells stimulated with native activated HMG1.
Cytokine release data is presented as mean of triplicates±standard deviations. […] It was calculated by PRISM program.

[3] = system: CpG2216+thymus HMG1 induced IFN-a release (TLR9 signaling); assay: Inhibition of HMG1 mediated enhancement of TLR9 signaling, CpG2216 + thymus HMG1 in bone marrow cells; format: cell-based; conditions: mouse bone marrow cells
Experimental: HMGB1+TLR Ligand: Freshly isolated bone marrow cells were stimulated with TLR ligands (TLR3:PolyIC@5 μg/mL; TLR4:LPS@2.5 ng/mL; TLR5:flagellin@0.25 μg/mL; TLR7:polyU@4 μg/mL or R837@5 μg/mL; TLR9:CpG2216@1 μM) with or without presence of thymus HMGB1 (10 μg/mL) for 24 hr. Cytokines in the supernatant were measured by ELISA.
Inhibition of HMG1 Mediated Enhancement of TLR Signaling: Freshly isolated bone marrow cells were stimulated with TLR9 ligand CpG2216 (0.3 μM) and thymus HMGB1 (10 μg/mL) in the presence of different concentration of the anti-HMGB1 mAb E11 or control human IgG for 24 hr and IFN-a in the supernatant was measured by ELISA. CpG2216, HMGB1 and nonstimulatory DNA were used alone or in combination as controls for the assay.

AM14 B cells [4] = assay: DNA immune complex and AM14 cell binding assay; format: cell-based, mouse
Experimental: DNA immune complex and AM14 cell binding assay DNA immune complexes were preformed by mixing spent culture supernatants with 15 μg/ml of PL2-3 (anti-nucleosome IgG2a). AM14 FcγRIIB−/− cells were incubated with a mixture of spent culture supernatants (CML sup.) and 15 μg/ml of PL2-3 (anti-nucleosome IgG2a) on ice. To analyze the effect of RAGE-Fc on the ability of the complexes to bind AM14 B cells, RAGE-Fc (or Fc control) was added to the immune complexes for an additional 2 h on ice. The chromatin immune complexes, or antibody alone, were added to 0.5×10^6 splenic purified AM14 FcγRIIB−/− B. HMGB1 in complexes was detected using an anti-HMGB1-Biotinylated antibody (MedImmune, Inc.) and PL2-3 was detected by an anti-IgG2a-FITC.

AM14 B cells [5] = assay: AM14 proliferation assay; format: cell-based, mouse
Experimental: AM14 proliferation assay: Purified AM14 B cells were preincubated with RAGE-Fc or control human IgG1 for 30 min at 37° C., and stimulated with 0.1 μg/ml of PL2-3 for 24 h at 37° C. Cells were then pulsed with [^3H]thymidine for 6 h.

[6] = system: LPS+HMG1 induced TNF-a release (TLR4 signaling); assay: Inhibition of HMG1 mediated enhancement of TLR4 signaling, LPS+HMG1 TNF-a release; format: cell-based, mouse

HMGB1: HMGB1 purified from bovine thymus
Kd (CpG A DNA): 70 nM
induction of TNF-a mRNA levels (mouse macrophages; 2 hours, listed as native HMG1): ~30 fold
induction of TNF-a mRNA levels (mouse macrophages; 2 hours, listed as thymus HMG1): roughly 30 fold
induction of TNF-a mRNA levels (mouse macrophages; 8 hour): ~15 fold
increase in TNF-a protein levels (mouse macrophages; 24 hours, supernatant): no induction
IFN-α production (pDCs): ineffective

RAGE-Fc: RAGE-Fc fusion protein (soluble RAGE), RAGE antagonist
inhibition of induction of IFIT1 mRNA by lupus plasma [1]: approx 75%
block of IL-6 release induced by native activated HMG1 [2]: able to block IL-6 released induced by native activated HMG1
inhibition of IFN-a release induced by CpG + thymus HMG1 [3]: inhibit IFN-a release
inhibition of IFN-a release induced by CpG + thymus HMG1 ([3]; listed as RAGE/Fc): significantly blocked CpG/HMGB1 complex induced IFN-α
inhibition of IFN-a release induced by CpG alone ([3]; listed as RAGE/Fc): did not block CpG-A induced IFN-α production
inhibition of IFN-a release induced by CpG + thymus HMG1 ([3]; listed as Rage/Fc): to a less extent; also recorded: inhibited the release of INF-a induced by CpG2216+thymus HMG1
inhibition of IFN-a release induced by CpG alone ([3]; listed as Rage/Fc): Neither E11, G4 or Rage/Fc inhibited
inhibition of binding of chromatin/DNA immune complexes to AM14 B cells (AM14 B cells [4]): blocks binding of chromatin IC to AM14 B cells; also recorded: inhibited binding of HMGB1-containing DNA immune complexes to the surface of B cells
effect on TLR2, TLR4 ligand induced proliferation or BCR mediated B cell activation (AM14 B cells [5]): had no effect
inhibition of DNA immune complex (PL2-3) dependent proliferation of AM14 B cells (AM14 B cells [5]; thymidine incorporation): reduced proliferation; also recorded: markedly inhibited PL2-3-dependent proliferation of AM14 B cells
inhibition of TNF-a release induced by LPS+HMG1 [6]: inhibits the release of TNF-a induced by LPS+HMG1; also recorded: could be blocked; also recorded: inhibit the release of TNFa induced by LPS+HMG1

5′-GGGGGACGATCGTCGGGGGG-3′ [CpG DNA]
IFN-α production (pDCs): 32 ± 5 pg/mL
TNF-α production (pDCs): 43 ± 5 pg/mL

lipopolysaccharide [LPS, reference compound]
induction of TNF-a mRNA levels (mouse macrophages; 2 hours): ~66 fold
induction of TNF-a mRNA levels (mouse macrophages; 8 hour): ~7 fold
